Here are results for one compound from article PMC10354432, “Preparation of caffeic acid grafted chitosan self-assembled micelles to enhance oral bioavailability and antibacterial activity of quercetin” (Frontiers in Veterinary Science, 2023).

The term MIC denotes the lowest concentration found to suppress growth. A lower MIC goes with inhibition by little substance. Broadly, the MBC is the lowest tested concentration that kills the bacteria rather than only halting them. Read a high MBC as weaker bactericidal potency. The AUC(0-inf) is total exposure, with the tail of the curve extrapolated. A lower AUC(0-inf) goes with less exposure. One may read the AUC(0-t) as exposure summed from dosing to a finite time, without extrapolation to infinity. Read a high AUC(0-t) as high exposure. A word on the CL/F: it is clearance divided by bioavailability, as obtained after extravascular dosing. In general, Cmax refers to the peak of the concentration-time curve. As a reminder, the Tmax is the time at which the peak concentration occurs.

In data set [1] the test system is Escherichia coli CMCC44102. In words: MIC and MBC, micro broth twofold dilution. The data set is classed as cell-based. The procedure:
(§1) We selected Escherichia coli CMCC44102 and Escherichia coli of chicken origin as experimental strains to determine their Minimum Inhibitory Concentration (MIC) and Minimum Bactericidal Concentration (MBC). The culture medium was configured and autoclaved, and the bacteria were cultured. The bacterial broth of the logarithmic growth period was diluted by micro broth twofold dilution method, 100 μL broth was added to each well of a sterile 96-well plate, and then 100 μL of prepared drug solution was added to the first well respectively, mixed well, and then diluted in multiples until the last well was mixed and 100 μL of the mixture was discarded. Each well was added with 100 μL of the prepared bacterial diluent, and a positive control (with bacteria and no drug) and a negative control (without bacteria and no drug) were set up. […] The tritriazolium chloride (TTC) method was used to determine the MIC results. 5 g/L TTC was added to each well of the 96-well plate after incubation for 1 h at 37°C, and the MIC was determined as the lowest antibacterial drug concentration in the wells with bacterial growth and the wells without bacterial growth. 100 μL of the liquid from each well clarified in the above test group was spread on solid, and the lowest drug concentration for no colony growth was its MBC. Agar plate experiments were also performed using the Oxford cup method, using CA-g-CS/QR with QR aqueous solution and maintaining the same concentration, sterile water group and CA-g-CS group were set, and three parallel experiments were performed to further confirm the antibacterial activity of the compounds.

The test system of data set [2] is Escherichia coli of chicken origin. In words: MIC and MBC, micro broth twofold dilution. Format: cell-based. The method, then:
as §1

A short description of data set [3]: Stability of QR in white broiler plasma. The data set is classed as in vitro ADME. The procedure:
Precision and accuracy were assessed by running the standards (n = 6) for 1 day and three consecutive days for three levels of concentration (10.0, 100.0, and 500.0 ng/ml) at low, medium, and high. The stability of QR in the samples was also investigated by sampling and analyzing the three levels of spiked plasma at −20°C for 1 week and 4°C for 24 h.

The conditions of data set [4]: rats; cited from earlier work.
Data set [5] is described as follows: In vivo pharmacokinetics in white-finned broiler chickens. The settings on record: Chinese white-finned broiler, po, i.g., 36 mg/kg. From the text: The experimental procedures were reviewed and approved by the Institutional Animal Care and Use Committee of Hebei Agricultural University and carried out in accordance with the Guidelines for the Care and Use of Laboratory Animals of China. In this study, 12 healthy 30 days old Chinese white-finned broilers were used for the trial. All broilers were reared from 1 day of age and were provided with adequate basal diets and water, which were formulated to meet or exceed the nutritional requirements of broilers. Room temperature was maintained at 35°C for the first 3 days, then decreased to 28–30°C for the next 2 weeks and 25°C for the rest of the period. Broilers were randomly divided into two treatment groups (six broilers per treatment, n = 6) before the experiment, fasted for 18 h, and watered ad libitum. The experiment was administered by instillation, and blood was collected under the wings during the experiment according to the time designed for the experiment, and the plasma was centrifuged and separated for storage in a refrigerator at −20°C for processing and analysis. At the end of the experiment, broilers were euthanized.
The Waters Acquity UPLC H-Class system (Waters, Milford, MA, USA) includes a four-stage solvent manager, an autosampler set at 4°C and a Waters Acquity UPLC Shield RP18 column (100 × 2.1 mm, 1.7 μm, Waters. Milford, MA, USA). The mobile phase was methanol-0.1% phosphate (72:28, v/v). Detection was performed by a photodiode array detector at 373 nm at a flow rate of 0.2 mL/min. This assay was developed for the determination of QR in blood plasma.
A 200μL aliquot of plasma was sequentially added 20μL of 40μg/mL kaempferol internal standard, 100 μL of 25% HCL and 2 mL of ethyl acetate vortexed for 2 min equally. This mixture was centrifuged at 5000 rpm for 10 min, and the supernatant was transferred into a centrifuge tube and then concentrated to dryness under nitrogen. The analytes were dissolved in 200 μL of methanol/0.1% phosphoric acid water (4:1, v/v).
White-finned broilers were randomly divided into two experimental groups, one for the QR solution group and the other for the CA-g-CS/QR group, with six replicates in each group. The CA-g-CS/QR solution and the original QR solution were prepared and administered to the chickens at a dose of 36 mg/kg, and blood was collected under the wings at 15, 30, 60, 120, 240, 360, 480, 720, 1440, and 2160 min after the administration, placed in sodium heparin anticoagulation tubes and centrifuged to separate the plasma.
Pharmacokinetic parameters were estimated by blood concentration-time curves from Phoenix WinNonlin software. The […] was used to calculate the terminal elimination half-life (t1/2, λz), the area under the blood concentration-time curve (AUC0 − t), terminal feed time (AUC0−∞), total clearance (CL), and volume of distribution (Vd, λz). The peak blood concentration (Cmax) and time to peak (Tmax) were read directly from the observed individual blood concentration-time data. For instillation administration, the relative bioavailability (F) was calculated using the AUC0−∞ of CA-g-CS/QR versus QR.

Data set [6] in a line: Particle size and morphology by transmission electron microscopy. Format: physicochemical. The text has this:
We evaluated the successful preparation of CA-g-CS by UV absorption and IR detection of CS, CA, and CA-g-CS and compared the solubility of CS as well as CA-g-CS in water. The morphology of CA-g-CS/QR and QR was characterized by transmission electron microscopy. CA-g-CS/QR and QR were dropped on clean copper grids, negatively stained with 2% phosphotungstic acid solution, and the water was evaporated in the air at room temperature. The samples were dried and placed under transmission electron microscopy to observe the morphology.

[7] abbreviates: no colony growth on solid medium.

The compound `O=c1c(O)c(-c2ccc(O)c(O)c2)oc2cc(O)cc(O)c12` [QR, Quercetin] showed an MIC in data set [1] (24 h at 37°C, TTC method) of 0.013 mol/L. The MBC in data set [1] (setting [7]) is reported as 0.026 mol/L. In data set [2] (24 h at 37°C, TTC method), the MIC was found to be 0.0585 mol/L. This compound also yielded an MBC in data set [2] (setting [7]) of 0.117 mol/L. Moreover, in data set [3] (prepared plasma sample, 10 ng/mL, read-out: Remaining (%) in prepared plasma sample stored at 4°C for 24h), the share remaining at 24 h, 10 ng/mL was determined as 92.8 ± 2.94%. Further, the share remaining at 24 h, 100 ng/mL in data set [3] (prepared plasma sample, 100 ng/mL, read-out: Remaining (%) in prepared plasma sample stored at 4°C for 24h) came out at 97.2 ± 5.63%. The amount remaining at 24 h, 500 ng/mL in data set [3] (prepared plasma sample, 500 ng/mL, read-out: Remaining (%) in prepared plasma sample stored at 4°C for 24h) turned out to be 99.98 ± 0.45%. Besides, the share remaining at 168 h, 10 ng/mL in data set [3] (spiked plasma, 10 ng/mL, read-out: Remaining (%) in plasma stored at −20°C for 7 days) was 96.6 ± 6.62%. Moreover, the fraction remaining at 168 h, 100 ng/mL in data set [3] (spiked plasma, 100 ng/mL, read-out: Remaining (%) in plasma stored at −20°C for 7 days) was found to be 103 ± 8.97%. In data set [3] (spiked plasma, 500 ng/mL, read-out: Remaining (%) in plasma stored at −20°C for 7 days), the amount remaining at 168 h, 500 ng/mL was 93.5 ± 1.78%. In addition, the oral bioavailability in data set [4] is on record as under 17%. Further, in data set [5] (n = 6), the AUC(0-inf) was 2840 ng·h/mL, the AUC(0-t) was 2760 ng·h/mL, the CL/F was 219 ± 44.1 mL/min/kg and the peak level (Cmax) was 278 ± 18.5 ng/mL. Moreover, the Tmax in data set [5] (n = 6) was 2 h. Moreover, the half-life in data set [5] (n = 6, read-out: T1/2, λz) turned out to be 6.98 ± 0.704 h. Moreover, the Vd/F in data set [5] (n = 6, read-out: Vd, λz/F) was 132 ± 25.5 L/kg. In data set [6], this compound gave a particle size of 1.5 ± 0.1 μm.
